This is an account of results in patent US9593149B2, “Amylin and calcitonin receptor agonist” (Novo Nordisk A/S, priority 2014, dated 2017).

Numbered stars: 1 amine (or outer) side, 2 acyl side, 3 side chain; on linkers, the order of the positions; unused ones are H or OH. Side chains are listed from the residue outwards. Peptide text beside a SMILES is read from it. * marks the point of attachment. C20 diacid = O=C(O)CCCCCCCCCCCCCCCCCCC(=O)*; C18 diacid = O=C(O)CCCCCCCCCCCCCCCCC(=O)*; γGlu = O=C(O)[C@H](CCC(=O)[*:2])N[*:1]

Data set [1] deals with T1, human amylin 3(a) receptor (human calcitonin receptor + RAMP-3), BHK570 cells (Homo sapiens, UniProt O60896+P30988).
T1 construct: host or cells: BHK570
T1 sequence (O60896 24-148): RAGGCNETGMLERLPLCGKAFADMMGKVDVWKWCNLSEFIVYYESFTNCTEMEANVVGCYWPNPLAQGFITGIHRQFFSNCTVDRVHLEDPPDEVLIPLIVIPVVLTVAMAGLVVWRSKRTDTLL
T1 sequence (P30988 25-474): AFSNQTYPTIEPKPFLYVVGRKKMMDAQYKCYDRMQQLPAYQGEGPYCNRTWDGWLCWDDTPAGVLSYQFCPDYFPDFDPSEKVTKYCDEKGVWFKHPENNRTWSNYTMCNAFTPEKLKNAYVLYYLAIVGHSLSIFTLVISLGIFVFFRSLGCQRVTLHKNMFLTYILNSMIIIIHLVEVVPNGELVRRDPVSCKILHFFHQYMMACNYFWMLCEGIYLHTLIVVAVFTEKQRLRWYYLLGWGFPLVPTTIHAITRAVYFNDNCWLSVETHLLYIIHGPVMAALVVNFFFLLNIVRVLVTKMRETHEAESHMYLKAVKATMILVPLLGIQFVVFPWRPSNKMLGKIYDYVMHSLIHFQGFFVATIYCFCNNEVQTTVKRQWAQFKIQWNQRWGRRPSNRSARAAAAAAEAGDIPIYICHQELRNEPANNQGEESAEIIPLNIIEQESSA
Nature of the data set: Assay (II)a functional CRE-luciferase assay with albumin, human amylin receptor. It is filed as cell-based. The following applies: Tested with HSA; read-out: hAmylin-R funct. EC50. The essentials: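 BHK570 cells stably carry a CRE-luciferase reporter and the calcitonin receptor; co-transfected RAMP-3 gives the amylin 3(a) receptor line. Cells were treated for 3 h at 37 °C in DMEM with 10% FBS and 10 mM Hepes, pH 7.4. cAMP-driven luciferase was read by LucLite luminescence after 30 min at RT.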

For data set [2], the target named is T1, human amylin 3(a) receptor (human calcitonin receptor + RAMP-3), BHK570 cells. As to the kind of experiment: Assay (II)b functional CRE-luciferase assay without albumin, human amylin receptor. It is filed as cell-based. The following applies: Tested without HSA; read-out: hAmylin-R funct. EC50. The essentials:
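Agonism measured as CRE-driven luciferase luminescence after 3 h sample exposure at 37 °C, without albumin (0.1% ovalbumin, Hepes pH 7.4 medium). Reporter cells: BHK570 carrying human calcitonin receptor, co-transfected with RAMP-3 to form the amylin 3(a) receptor.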

A short description of another data set: Assay (X) pK, T½ in rat. The class given is in vivo, Sprague Dawley rats. As for the experimental part:
Assay (X)—pK—Determination of T½ in Rat
Pharmacokinetic (PK) studies rats were conducted in order to determine the T½ of mimylin peptide after i.v. and s.c. administration.
T½ values of the mimylin derivates of the invention is determined by pharmacokinetic studies in Sprague Dawley male rats, from Taconic Europe and the principles of laboratory animal care are followed.
An acclimatisation period of approximately 7 days was allowed before the animals entered the study. At start of the acclimatisation period the rats were in the weight range of 250-400 g.
The studies were conducted in an animal room which was illuminated to give a cycle of approximately 12 hours light and 12 hours darkness. The animals were group housed and had food and water ad lib. The animals were weighed on the days of dosing.
In the present studies the test substances were administered subcutaneously or intravenously in approximately 20 nmol/kg dose. The animals received a single subcutaneous injection to the neck for subtaneous administration or directly into the tail vein for intravenous administration. Each test substance was given to typically three but in some cases two or four animals.
A full plasma concentration-time profile, employing 8-10 sampling points, was obtained from each animal. In example blood samples were collected according to the following schedule: After subcutaneous or intravenous administration:
At each sampling time, 0.08 to 0.10 ml of blood was drawn from each animal. The blood samples were taken in the sublingual vein via venous puncture and the use of a capillary tube.
The blood samples were stabilised with EDTA. Blood samples were kept on ice for max 20 min. before centrifugation. Plasma was separated using centrifugation (i.e. at 4° C., 10 min., 1500G) and was immediately transferred to Micronic tubes or PCR plates. Approximately 40 μl plasma was transferred and was stored at −20° C. until assayed. The plasma samples were assayed for the content of mimylin compound by LCMS
The plasma concentration-time profiles were analysed by a non-compartmental pharmacokinetic analysis (NCA) using Phoenix WinNonlin 6.3 (Pharsight Inc., Mountain View, Calif., USA). NCA was performed using the individual plasma concentration-time profiles from each animal. T½ is the terminal half-life=In2/λz and was determined from λz, the first order rate constant associated with the terminal (log-linear) portion of the curve, estimated by linear regression of time vs. log concentration.

On to `CC(=O)N[C@@H](C)C(=O)N[C@@H](CO)C(=O)N[C@@H](CCCCNC(=O)CC[C@H](NC(=O)CCCCCCCCCCCCCCCCCCC(=O)O)C(=O)O)C(=O)N[C@@H](CC(C)C)C(=O)N[C@@H](CO)C(=O)N[C@H](C(=O)N[C@@H](C)C(=O)N[C@@H](C)C(=O)N[C@@H](CC(C)C)C(=O)NCC(=O)N[C@@H](CCCNC(=N)N)C(=O)N[C@@H](CC(C)C)C(=O)N[C@@H](CO)C(=O)N[C@@H](C)C(=O)N[C@@H](CCC(=O)O)C(=O)N[C@@H](CC(C)C)C(=O)N[C@@H](Cc1c[nH]cn1)C(=O)N[C@@H](CCC(=O)O)C(=O)N[C@@H](CC(C)C)C(=O)N[C@@H](C)C(=O)N[C@H](C(=O)N[C@@H](CC(C)C)C(=O)N1CCC[C@H]1C(=O)N[C@@H](CCCNC(=N)N)C(=O)N[C@H](C(=O)N[C@@H](CCC(=O)O)C(=O)N[C@H](C(=O)NCC(=O)N[C@@H](CO)C(=O)NCC(=O)N[C@@H](CO)C(=O)N1CCC[C@H]1C(N)=O)[C@@H](C)O)[C@@H](C)O)[C@@H](C)O)[C@@H](C)O` [compound 68, [N-terminal(acetyl), des1, 4K(C20 diacid-gGlu), 30S, 31G]mimylin] (Ac-ASK([γGlu-C20 diacid])LSTAALGRLSAELHELATLPRTETGSGSP-NH2), for which the EC50 (as a rule, the concentration needed to bring the measured effect to its halfway point) in data set [1] came out at 0.072 nM; in data set [2], 0.036 nM.
Consider `CC(C)C[C@H](NC(=O)[C@H](C)NC(=O)[C@H](C)NC(=O)[C@@H](NC(=O)[C@H](CO)NC(=O)[C@H](CC(C)C)NC(=O)[C@H](CCC(=O)O)NC(=O)[C@H](CO)NC(=O)[C@H](C)NC(=O)[C@H](CCC(=O)O)NC(=O)CCCCCCCCCCCCCCCCC(=O)O)[C@@H](C)O)C(=O)NCC(=O)N[C@@H](CCCNC(=N)N)C(=O)N[C@@H](CC(C)C)C(=O)N[C@@H](CO)C(=O)N[C@@H](C)C(=O)N[C@@H](CCC(=O)O)C(=O)N[C@@H](CC(C)C)C(=O)N[C@@H](Cc1cnc[nH]1)C(=O)N[C@@H](CCC(=O)O)C(=O)N[C@@H](CC(C)C)C(=O)N[C@@H](C)C(=O)N[C@H](C(=O)N[C@@H](CC(C)C)C(=O)N1CCC[C@H]1C(=O)N[C@@H](CCCNC(=N)N)C(=O)N[C@H](C(=O)N[C@@H](CCC(=O)O)C(=O)N[C@H](C(=O)NCC(=O)N1CCC[C@H]1C(=O)N[C@@H](CCC(=O)O)C(=O)N[C@@H](CO)C(=O)N1CCC[C@H]1C(N)=O)[C@@H](C)O)[C@@H](C)O)[C@@H](C)O` [Ex. #2, [N-terminal(C18 diacid)]mimylin] ({C18 diacid}-EASELSTAALGRLSAELHELATLPRTETGPESP-NH2), for which, in the data set “Assay (X) pK, T½ in rat” (i.v.), the “PK rat iv T½” value stood at 12 h. Moreover, the “PK rat sc T½” value in the data set “Assay (X) pK, T½ in rat” (s.c.) amounted to 13 h.
In the case of `CC(C)C[C@H](NC(=O)[C@H](C)NC(=O)[C@H](C)NC(=O)[C@@H](NC(=O)[C@H](CO)NC(=O)[C@H](CC(C)C)NC(=O)[C@H](CCC(=O)O)NC(=O)[C@H](CO)NC(=O)[C@H](C)NC(=O)[C@H](C)NC(=O)CC[C@H](NC(=O)CCCCCCCCCCCCCCCCCCC(=O)O)C(=O)O)[C@@H](C)O)C(=O)NCC(=O)N[C@@H](CCCNC(=N)N)C(=O)N[C@@H](CC(C)C)C(=O)N[C@@H](CO)C(=O)N[C@@H](C)C(=O)N[C@@H](CCC(=O)O)C(=O)N[C@@H](CC(C)C)C(=O)N[C@@H](Cc1c[nH]cn1)C(=O)N[C@@H](CCC(=O)O)C(=O)N[C@@H](CC(C)C)C(=O)N[C@@H](C)C(=O)N[C@H](C(=O)N[C@@H](Cc1ccc(O)cc1)C(=O)N1CCC[C@H]1C(=O)N[C@@H](CCCNC(=N)N)C(=O)N[C@H](C(=O)N[C@@H](CCC(=O)O)C(=O)N[C@H](C(=O)NCC(=O)N[C@@H](CO)C(=O)NCC(=O)N[C@@H](CO)C(=O)N1CCC[C@H]1C(N)=O)[C@@H](C)O)[C@@H](C)O)[C@@H](C)O` [compound 57, [N-terminal(C20 diacid-gGlu), 1A, 23Y, 30S, 31G]mimylin] ({C20 diacid-γGlu}-AASELSTAALGRLSAELHELATYPRTETGSGSP-NH2), the EC50 in data set [2] was 0.02 nM.
Consider `CC(C)C[C@H](NC(=O)[C@H](CCCNC(=N)N)NC(=O)CNC(=O)[C@H](CC(C)C)NC(=O)[C@@H](NC(=O)[C@H](C)NC(=O)[C@@H](NC(=O)[C@H](CO)NC(=O)[C@H](CC(C)C)NC(=O)[C@H](CCC(=O)O)NC(=O)[C@H](CO)NC(=O)[C@H](C)NC(=O)CC[C@H](NC(=O)CCCCCCCCCCCCCCCCCCC(=O)O)C(=O)O)[C@@H](C)O)C(C)C)C(=O)N[C@@H](CO)C(=O)N[C@@H](CCC(N)=O)C(=O)N[C@@H](CCC(=O)O)C(=O)N[C@@H](CC(C)C)C(=O)N[C@@H](Cc1c[nH]cn1)C(=O)N[C@@H](CCC(=O)O)C(=O)N[C@@H](CC(C)C)C(=O)N[C@@H](CCC(N)=O)C(=O)N[C@H](C(=O)N[C@@H](Cc1ccc(O)cc1)C(=O)N1CCC[C@H]1C(=O)N[C@@H](CCCNC(=N)N)C(=O)N[C@H](C(=O)N[C@@H](CCC(=O)O)C(=O)N[C@H](C(=O)NCC(=O)N[C@@H](CO)C(=O)NCC(=O)N[C@H](C(=O)N[C@@H](Cc1ccc(O)cc1)C(N)=O)[C@@H](C)O)[C@@H](C)O)[C@@H](C)O)[C@@H](C)O` [compound 114, [N-terminal(C20 diacid-gGlu), des1, 9V, 15Q, 21Q, 23Y, 30S, 31G, 32T, 33Y]mimylin], for which the EC50 in data set [1] worked out at 0.142 nM.
